This is an account of results in US20100069341A1, “TETRAHYDRO-PYRANOPYRAZOLE CANNABINOID MODULATORS” (priority 2005, published 2010).

As a reminder, the inhibition is the percentage by which the read-out fell short of the control. As usually defined, the IC50 is the concentration at which inhibition is half-maximal.

Where two headings read alike, the source gives them in different places.

One test deals with T1, Cannabinoid CB2 Receptor (Homo sapiens, UniProt P34972).
T1 construct: expressed in transfected cells; semi-purified membrane pellet
T1 sequence (P34972 whole entry): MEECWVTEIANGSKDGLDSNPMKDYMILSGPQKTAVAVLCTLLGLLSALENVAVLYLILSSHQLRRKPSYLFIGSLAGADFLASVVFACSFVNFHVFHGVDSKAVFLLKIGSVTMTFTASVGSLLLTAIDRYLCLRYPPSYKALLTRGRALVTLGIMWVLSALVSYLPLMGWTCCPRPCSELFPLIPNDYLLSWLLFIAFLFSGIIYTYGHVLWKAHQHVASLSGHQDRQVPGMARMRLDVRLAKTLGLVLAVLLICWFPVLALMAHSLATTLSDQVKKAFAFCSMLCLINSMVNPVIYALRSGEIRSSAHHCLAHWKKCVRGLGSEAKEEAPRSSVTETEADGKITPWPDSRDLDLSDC
Put plainly: Binding assay, cannabinoid CB2 receptor ([3H]-CP-55,940 displacement, SK-N-MC cell membranes). Particulars: test concentration of 0.2 μM, human CB2 in SK-N-MC membranes; for inhibition at 0.2 µM: read-out: Cannabinoid CB2 Receptor Binding, percent inhibition. The method, then: (§1) Binding Assay for CB1 or CB2 Agonists or Inverse Agonists
(§2) The human CB1 and CB2 receptors were stably expressed in SK-N-MC cells transfected with pcDNA3 CB-1 (human) or pcDNA3 CB-2 (human). The cells were grown in T-180 cell culture flasks under standard cell culture conditions at 37° C. in a 5% CO2 atmosphere. The cells were harvested by trysinization and homogenized in a homogenization buffer (10 mM Tris, 0.2 mM MgCl2, 5 mM KCl, with protease inhibitors aprotinin, leupeptin, pepstatin A and bacitracin) and centrifuged (2000 g). The supernatant was then centrifuged in 2M sucrose (31,300 g) to produce a semi-purified membrane pellet. The pellet was resuspended in homogenization and store at −80° C.
(§3) On the day of the assay, the pellet was thawed on ice and diluted in assay buffer (50 mM Tris-HCl, 5 mM MgCl2, 2.5 mM EDTA, 0.5 mg/mL fatty acid free bovine serum albumin, pH 7.5). The diluted membrane was added with buffer, test compound or standard and the radioligand [H]^3+-CP-55,940 (0.2 nM) to the wells of a 96-well polypropylene plate. Non-specific binding was measured in wells containing 10 uM WIN 55,212. The plate was covered and incubated for 90 minutes at 30° C. The contents were then aspirated onto a Packard Unifilter GF/C filter bottom plate prewet with 0.5% polyethyleneimine. The wells of the polypropylene plate were rinsed and aspirated seven times with a 0.9% saline-0.5% Tween 20 solution. The Unifilter plate was dried, a scintillation cocktail was added to each well and the counts representing binding were quantitated in a TopCount scintillation counter.
For compounds tested, an IC50 binding value was obtained from percent inhibition studies in which various test concentrations were used. The binding value (in μM) was calculated by linear regression. For compounds without an IC50 binding value, the percent inhibition (in %) was obtained at a test concentration of 0.2 μM.

For a further test, the target named is T2, Cannabinoid CB1 Receptor (Homo sapiens, UniProt P21554).
T2 construct: expressed in transfected cells; semi-purified membrane pellet
T2 sequence (P21554 whole entry): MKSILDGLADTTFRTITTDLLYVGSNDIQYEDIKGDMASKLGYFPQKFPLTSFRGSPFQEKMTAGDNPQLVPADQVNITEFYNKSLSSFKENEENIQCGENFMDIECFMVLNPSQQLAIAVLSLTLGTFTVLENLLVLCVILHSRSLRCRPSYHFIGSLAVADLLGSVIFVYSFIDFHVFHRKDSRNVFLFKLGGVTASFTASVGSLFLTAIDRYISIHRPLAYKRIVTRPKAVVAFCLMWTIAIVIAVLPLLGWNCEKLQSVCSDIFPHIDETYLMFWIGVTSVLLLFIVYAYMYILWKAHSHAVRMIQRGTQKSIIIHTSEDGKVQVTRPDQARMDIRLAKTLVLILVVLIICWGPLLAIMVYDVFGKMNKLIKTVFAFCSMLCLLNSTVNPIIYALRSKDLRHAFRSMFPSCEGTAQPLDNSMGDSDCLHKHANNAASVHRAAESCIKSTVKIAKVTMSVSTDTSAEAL
Put plainly: Binding assay, cannabinoid CB1 receptor ([3H]-CP-55,940 displacement, SK-N-MC cell membranes). Particulars: for inhibition at 0.2 µM: read-out: Cannabinoid CB1 Receptor Binding, percent inhibition. As for the experimental part: as §1, §2
as §3, with “The diluted membrane was added with buffer, test compound or standard and the radioligand [H]^3+-CP-55,940 (0.2 nM) to the wells of a 96-well polypropylene plate. Non-specific binding was measured in wells containing 10 uM WIN 55,212.” left out
For compounds tested, an IC50 binding value was obtained from percent inhibition studies in which various test concentrations were used. The binding value (in μM) was calculated by linear regression.

The mark [1] stands for this setting: test concentration of 0.2 μM, human CB1 in SK-N-MC membranes.

As to `O=C(NN1CC2CCCC2C1)c1nn(-c2ccc(Cl)cc2Cl)c2c1COC/C2=C\c1ccc(Cl)s1` (centres unmarked) [Cpd 56, (7Z)-7-(5-chloro-thiophen-2-ylmethylene)-1-(2,4-dichloro-phenyl)-1,4,6,7-tetrahydro-pyrano[4,3-c]pyrazole-3-carboxylic acid (hexahydro-cyclopenta[c]pyrrol-2-yl)-amide], the inhibition at 0.2 µM on Cannabinoid CB2 Receptor turned out to be 0%; at Cannabinoid CB1 Receptor (setting [1]) it was 74%. Further, at Cannabinoid CB1 Receptor, the IC50 was 0.04 µM.
In the same order, the values of `O=C(NN1CCCC1)c1nn(-c2ccc(Cl)cc2Cl)c2c1COC/C2=C\c1ccsc1` [Cpd 47, (7Z)-1-(2,4-dichloro-phenyl)-7-thiophen-3-ylmethylene-1,4,6,7-tetrahydro-pyrano[4,3-c]pyrazole-3-carboxylic acid pyrrolidin-1-ylamide] are 9%, 70% and 0.03 µM.
In the same order, the values of `O=C(NN1CCCCCC1)c1nn(-c2ccc(Cl)cc2Cl)c2c1COC/C2=C\c1cccs1` [Cpd 36, (7Z)-1-(2,4-dichloro-phenyl)-7-thiophen-2-ylmethylene-1,4,6,7-tetrahydro-pyrano[4,3-c]pyrazole-3-carboxylic acid azepan-1-ylamide] are 16%, 84% and 0.02 µM.
As for `C[C@@H](NC(=O)c1nn(-c2ccc(Cl)cc2Cl)c2c1COC/C2=C\c1ccc(Cl)o1)c1ccccn1` [Cpd 66, (7Z)-7-(5-chloro-furan-2-ylmethylene)-1-(2,4-dichloro-phenyl)-1,4,6,7-tetrahydro-pyrano[4,3-c]pyrazole-3-carboxylic acid [(R)-1-pyridin-2-yl-ethyl]-amide], the inhibition at 0.2 µM turned out to be 10% on Cannabinoid CB2 Receptor and 58% on Cannabinoid CB1 Receptor (setting [1]).
In the same order, the values of `C[C@H](NC(=O)c1nn(-c2ccc(Cl)cc2Cl)c2c1COC/C2=C\c1ccc(Cl)s1)c1ccccc1` [Cpd 51, (7Z)-7-(5-chloro-thiophen-2-ylmethylene)-1-(2,4-dichloro-phenyl)-1,4,6,7-tetrahydro-pyrano[4,3-c]pyrazole-3-carboxylic acid [(S)-1-phenyl-ethyl]-amide] are 15% and 48%.
On to `C[C@@H](NC(=O)c1nn(-c2ccc(Cl)cc2Cl)c2c1COC/C2=C\c1ccsc1)c1ccccc1` [Cpd 40, (7Z)-1-(2,4-dichloro-phenyl)-7-thiophen-3-ylmethylene-1,4,6,7-tetrahydro-pyrano[4,3-c]pyrazole-3-carboxylic acid [(R)-1-phenyl-ethyl]-amide], for which, on Cannabinoid CB2 Receptor, the inhibition at 0.2 µM is 21%. At Cannabinoid CB1 Receptor, the IC50 was determined as 0.01 µM and the inhibition at 0.2 µM came out at 84%.
For `C[C@H](NC(=O)c1nn(-c2ccc(Cl)cc2Cl)c2c1COC/C2=C\c1ccc(Cl)o1)c1ccccc1` [Cpd 70, (7Z)-7-(5-chloro-furan-2-ylmethylene)-1-(2,4-dichloro-phenyl)-1,4,6,7-tetrahydro-pyrano[4,3-c]pyrazole-3-carboxylic acid [(S)-1-phenyl-ethyl]-amide], the inhibition at 0.2 µM at Cannabinoid CB2 Receptor was determined as 15%; on Cannabinoid CB1 Receptor (setting [1]), 41%.
For `O=C(NN1CCCCC1)c1nn(-c2ccc(Cl)cc2Cl)c2c1COC/C2=C\c1ccc(Cl)s1` [Cpd 54, (7Z)-7-(5-chloro-thiophen-2-ylmethylene)-1-(2,4-dichloro-phenyl)-1,4,6,7-tetrahydro-pyrano[4,3-c]pyrazole-3-carboxylic acid piperidin-1-ylamide], the results for the inhibition at 0.2 µM at Cannabinoid CB2 Receptor and on Cannabinoid CB1 Receptor (setting [1]) were 13% and 78%, respectively. The compound also returned an IC50 on Cannabinoid CB1 Receptor of 0.02 µM.
In the same order, the values of `O=C(NN1CCCCCC1)c1nn(-c2ccc(Cl)cc2Cl)c2c1COC/C2=C\c1ccsc1` [Cpd 44, (7Z)-1-(2,4-dichloro-phenyl)-7-thiophen-3-ylmethylene-1,4,6,7-tetrahydro-pyrano[4,3-c]pyrazole-3-carboxylic acid azepan-1-ylamide] are 16%, 86% and 0.02 µM.
In the same order, the values of `O=C(NN1CCCCCC1)c1nn(-c2ccc(Cl)cc2Cl)c2c1COC/C2=C\c1ccc(Cl)o1` [Cpd 65, (7Z)-7-(5-chloro-furan-2-ylmethylene)-1-(2,4-dichloro-phenyl)-1,4,6,7-tetrahydro-pyrano[4,3-c]pyrazole-3-carboxylic acid azepan-1-ylamide] are 9%, 71% and 0.07 µM.
With `O=C(N[C@H](CO)c1ccccc1)c1nn(-c2ccc(Cl)cc2Cl)c2c1COC/C2=C\c1ccc(Cl)s1` [Cpd 58, (7Z)-7-(5-chloro-thiophen-2-ylmethylene)-1-(2,4-dichloro-phenyl)-1,4,6,7-tetrahydro-pyrano[4,3-c]pyrazole-3-carboxylic acid [(S)-2-hydroxy-1-phenyl-ethyl]-amide], the inhibition at 0.2 µM on Cannabinoid CB2 Receptor was found to be 0%; on Cannabinoid CB1 Receptor (setting [1]) it was 59%.
In the case of “(7Z)-7-(5-chloro-thiophen-2-ylmethylene)-1-(2,4-dichloro-phenyl)-1,4,6,7-tetrahydro-pyrano[4,3-c]pyrazole-3-carboxylic acid [(2S)-2-benzyl-pentyl]-amide [Cpd 59]”, at Cannabinoid CB2 Receptor, the “Cannabinoid CB2 Receptor Binding, percent inhibition” value is 17%. For the same compound, the “Cannabinoid CB1 Receptor Binding, percent inhibition” value at Cannabinoid CB1 Receptor (setting [1]) came out at 38%.
Take `C[C@@H](NC(=O)c1nn(-c2ccc(Cl)cc2)c2c1COC/C2=C\c1ccc(F)cc1)c1ccccc1` [Cpd 12, (7Z)-1-(4-chloro-phenyl)-7-(4-fluoro-benzylidene)-1,4,6,7-tetrahydro-pyrano[4,3-c]pyrazole-3-carboxylic acid [(1R)-1-phenyl-ethyl]-amide]: the values for the inhibition at 0.2 µM at Cannabinoid CB2 Receptor and on Cannabinoid CB1 Receptor (setting [1]) were 5% and 81%, respectively. On Cannabinoid CB1 Receptor, this compound returned an IC50 of 0.05 µM.
Take `O=C(NN1CCCC1)c1nn(-c2ccc(Cl)cc2)c2c1COC/C2=C\c1ccc(F)cc1` [Cpd 16, (7Z)-1-(4-chloro-phenyl)-7-(4-fluoro-benzylidene)-1,4,6,7-tetrahydro-pyrano[4,3-c]pyrazole-3-carboxylic acid pyrrolidin-1-ylamide]: the inhibition at 0.2 µM turned out to be 11% on Cannabinoid CB2 Receptor and 44% on Cannabinoid CB1 Receptor (setting [1]).
As to `O=C(NN1CC2CCCC2C1)c1nn(-c2ccc(Cl)cc2)c2c1COC/C2=C\c1ccc(F)cc1` (centres unmarked) [Cpd 15, (7Z)-1-(4-chloro-phenyl)-7-(4-fluoro-benzylidene)-1,4,6,7-tetrahydro-pyrano[4,3-c]pyrazole-3-carboxylic acid (hexahydro-cyclopenta[c]pyrrol-2-yl)-amide], the inhibition at 0.2 µM on Cannabinoid CB2 Receptor amounted to 18%; at Cannabinoid CB1 Receptor (setting [1]), 81%. Also, the IC50 at Cannabinoid CB1 Receptor is 0.08 µM.
In the same order, the values of `C[C@@H](NC(=O)c1nn(-c2ccc(Cl)cc2Cl)c2c1COC/C2=C\c1ccc(Cl)o1)c1ccccc1` [Cpd 69, (7Z)-7-(5-chloro-furan-2-ylmethylene)-1-(2,4-dichloro-phenyl)-1,4,6,7-tetrahydro-pyrano[4,3-c]pyrazole-3-carboxylic acid [(R)-1-phenyl-ethyl]-amide] are 15%, 73% and 0.05 µM.
As for `O=C(NN1CCCCC1)c1nn(-c2ccc(Cl)cc2Cl)c2c1COC/C2=C\c1cccs1` [Cpd 35, (7Z)-1-(2,4-dichloro-phenyl)-7-thiophen-2-ylmethylene-1,4,6,7-tetrahydro-pyrano[4,3-c]pyrazole-3-carboxylic acid piperidin-1-ylamide], the inhibition at 0.2 µM at Cannabinoid CB2 Receptor came to 12%; on Cannabinoid CB1 Receptor (setting [1]), 68%.
